The structures appear in SMILES notation.

The values below come from US20260138981A1, “DIHYDROFOLATE REDUCTASE INHIBITORS FOR ANTI-BIOTIC RESISTANT INFECTIONS” (THE TRUSTEES OF PRINCETON UNIVERSITY, priority 2022, published 2026).

In data set [1] the test system is P. aeruginosa PA14. The experiment in a line: Drug accumulation assay (intrabacterial drug metabolism, LC/MS). Type of data set: cell-based. To be noted: PA14, 5 μM, compared with TMP. As to the method:
FIG. 1G provides intrabacterial drug metabolism (IBDM) of PA14 treated with 5 μM fluorofolin or trimethoprim. Samples were taken at time t=0, 30, 60, and 90 minutes. Data represent mean±SD of triplicate technical replicates.
FIG. 1H provides cumulative accumulation of drugs over 90 mins by AUC of IBDM curves. Data represent mean±SD of triplicate technical replicates. (P value≤0.0001) t-test using Prism 9.
Overnight PA14 cultures were back-diluted to early-mid exponential phase (OD600=0.4-0.6). The assay was initiated with treatment of the culture with either 5.0 μM fluorofolin or 5.0 μM trimethoprim. A DMSO treated culture was utilized as a control. […] The resulting cell lysate samples were analyzed utilizing verapamil as an internal standard. […]
Compound accumulation was realized using the selective ion monitoring (SIM) mode to quantify peak integration for a compound and the internal standard using their respective m/z values. Compound peaks were confirmed using a scanning mode that detected the compound peak using an m/z range of 100-1000. Peak area integration values were determined and a ratio of the peak area for the compound to the peak area for the verapamil internal standard was calculated and compound concentration was then determined from the compound calibration curve. […]

Data set [2] has as its system P. aeruginosa PA14. The experiment in a line: Membrane permeability, TO-PRO-3 flow cytometry. Type of data set: cell-based. To be noted: PA14, 2×MIC, 15 min. The protocol:
FIG. 5A provides flow cytometry results of PA14 stained with the membrane permeability dye TO-PRO-3. […]. The gates were determined for TO-PRO-3 staining using solvent only and polymixin B controls.
The ability of fluorofolin to permeabilize P. aeruginosa PA14 was examined. Specifically, flow cytometry of P. aeruginosa stained with TO-PRO-3 was used, treated the bacteria with 2×MIC, and analyzed membrane integrity. […] It was hypothesized that this decrease in membrane targeting might also decrease toxicity due to the disruption of eukaryotic membranes.
Overnight P. aeruginosa PA14 or E. coli lptD4213 cultures were diluted 1:100 and grown to mid exponential phase at 37° C. Cultures were diluted 1:10 into PBS and treated with antibiotics for 15 minutes. P. aeruginosa PA14 was stained with TO-PRO-3 (640 nm excitation, 670/30 nm emission) to measure cell membrane integrity. […] DiOC2(3) was evaluated as a ratio of green (488 nm excitation, 525/50 nm emission) to red (488 nm excitation, 610/20 nm emission) (Novo et al., 1999). […] 100,000 events were recorded for each data file. Gates for permeabilization were determined using Polymixin B (Sigma-Aldrich P1004) and untreated controls. Gates for depolarization were determined using CCCP as a positive control. Data was analyzed using FlowJo v10 software (FlowJo LLC, Ashland, OR).
On the technique in general: A flow cytometer gives signals particle by particle.

For data set [3], the target named is T1, purified E. coli DHFR (FolA) (Escherichia coli, UniProt P0ABQ4).
T1 construct: purchased Genscript (Piscataway, NJ)
The experiment in a line: In vitro DHFR (FolA) activity, NADPH consumption at 340 nm. The data set is classed as biochemical. To be noted: Hill equation fit.

Another data set has as its system E. coli lptd34213. The data set is described as follows: Growth with thymidine supplementation. Type of data set: cell-based. To be noted: fluorofolin 50 μg/mL, 0.3 mM thymidine; also with SMX. The protocol: FIG. 6F quantifies P. aeruginosa PA14 or E. coli lptd4213 treated with fluorofolin 50 μg/mL in the presence or absence of 0.3 mM thymidine.
FIG. 6G quantifies E. coli lptd4213 treated with fluorofolin 50 μg/mL and SMX (78.1 μg/mL) in the presence or absence of 0.3 mM thymidine or 0.3 mM TMI supplementation, Curves represent optical at 600 nm (OD600) of 2 biological replicates. Mean±SD are shown.
(§1) Where listed, growth media were prepared according manufacturer recommendations: LB Broth and LB Broth supplemented with 0.3 mM thymine (BD Biosciences 244610, Alfa Aesar A15879), 0.3 mM methionine (Sigma-Aldrich M9625), 0.3 mM inosine (EMD Millipore 4060), Mueller Hinton II Broth (Cation-Adjusted)/(CAMHB) (BD 212322) or 0.3 mM thymidine (Sigma-Aldrich T1895), Gutnick Minimal Media (1.0 g/L K2SO4, 13.5 g/L K2HPO4, 4.7 g/L KH2PO4, 0.1 g/L of MgSO4-7H2O, 10 mM NH4Cl as a nitrogen source, and 0.4% w/v glucose as a carbon source)^62.

The subject of data set [4] is CDC & FDA Antibiotic Resistant P. aeruginosa Isolate Bank. The data set is described as follows: CDC clinical isolate panel growth inhibition. To be noted: 50 μg/mL. Type of data set: cell-based. As to the method:
Strains with growth inhibition>80% were considered sensitive to fluorofolin treatment.
Clinical isolates^45 were inoculated into LB Broth a 96-well flat bottom plate and grown overnight to stationary phase at 37° C. […] Percent growth was calculated by dividing OD600 of fluorofolin antibiotic treated wells to vehicle only wells.

The test system of data set [5] is S. epidermidis, E. cloacae, E. faecalis, K. pneumoniae, and S. aureus. The experiment in a line: Growth of other species with TMI supplementation. Type of data set: cell-based. The following applies: fluorofolin 2×MIC, 0.3 mM TMI. As to the method:
as §1

In general, IC50 refers to the point on the concentration scale where inhibition reaches its midpoint. `Nc1nc(N)c2c(ccc3c2ccn3Cc2ccnc(F)c2)n1` [fluorofolin]: the “permeabilization of red blood cell membranes (hemolysis)” value in the data set with sheep red blood cells is “did not cause significant permeabilization”. Further, the “rate of accumulation in P. aeruginosa” value in the data set with P. aeruginosa PA14 [1] (0-90 min) is “more rapidly”. Also, the “cumulative accumulation (AUC of IBDM curves)” value in the data set on P. aeruginosa PA14 [1] (over 90 mins) was “higher levels”. Also, the “disruption of membranes (TO-PRO-3)” value in the data set with P. aeruginosa PA14 [2] is reported as “does not cause significant disruption”. The compound also came in with an IC50 in data set [3] of 2.5 ± 1.1 nM. Also, in the data set with E. coli lptd34213, the “rescue of growth inhibition by thymidine supplementation alone” value is given as “Rescue from fluorofolin inhibition was also shown”. In data set [4], the “sensitivity of isolates expressing KPC-5 and NDM-1 carbapenemase genes” value is listed as “remained sensitive”; the “sensitivity of strains 7, 18 and 23 of the CDC panel (dfrB2)” value is “fluorofolin-sensitive”. The compound further returned a clinical isolates resistant in data set [4] (OD600 vs vehicle control) of 14.5%. The “rescue of growth inhibition by TMI supplementation” value in data set [5] is given as “could also be rescued from fluorofolin growth inhibition”.
